Measured values from patent US5196437A, “Method for treating hepatic diseases and regenerating liver tissue using FK 506 and related compounds” (Fujisawa Pharmaceutical Company, Ltd., priority 1990, dated 1993).

Assays:
hepatocytes in culture = conditions: literature (Francavilla et al); cited from earlier work
hepatocytes = test: Eck fistula dogs, left portal vein infusion: hepatocyte size and 3H-thymidine labelled hepatocytes; format: in vivo, dog (beagle); conditions: for Labeled Hepatocytes/1000 Hepatocytes, Left / Hepatocytes Size Units, Left: left (infused) lobe; for Labeled Hepatocytes/1000 Hepatocytes, Left / Hepatocytes Size Units, Left / Hepatocytes Size Units, Right / Labeled Hepatocytes/1000 Hepatocytes, Right: mean +/- SD; for Hepatocytes Size Units, Right / Labeled Hepatocytes/1000 Hepatocytes, Right: right lobe
Procedure: (§1) Twenty adult female beagle dogs underwent Eck fistula (Starzl et al, Lancet, 1976, 1:821-25). After performing a large side to side portacaval shunt, the left and right portal vein branches were ligated. A small infusion catheter was tied into the left branch and led through the abdominal wall and subcutaneously to a battery charged infusion pump that was incorporated into a non-restraining body cast. A constant infusion was started of the control or test fluids at the volume of 20 to 30 ml/day. Oral fluids and diet were allowed ad lib. Four days later, the animals were administered 0.2 mCi/kg (CH3 -^3 H)-thymidine with specific activity of 80-90 Ci/MMol (New England Nuclear, Boston). Two hours later, the dogs were anesthetized and killed.
Specimens were taken from 2 of the right hepatic lobes and 2 of the left lobes, fixed in 10% buffered formalin, and stained using standard hematoxylin-eosin staining techniques.
Autoradiography was carried out using Ilford K5 nuclear track liquid emulsion and an exposure time of at least 30 days. The number of mitoses, as an index of hepatocyte regeneration, was determined by counting the number of ^3 H-thymidine labelled nuclei per 1000 hepatocytes. […] In normal, unaltered dogs, about 1.6±0.4 mitosis per 1000 hepatocytes are present in the liver, and midzonal hepatocytes are about 0.17±0.01 size-units (Starzl et al, Lancet, 1979, 1:127-130). The exceptional reproducibility of these values and the small standard deviations make it easy to identify changes caused by operations such as Eck fistula, drugs, or other experimental variables.
(§2) Results are expressed as mean±standard deviation (SD). The Student's t-test was employed in individual experimental groups to compare differences between right and left lobes or between groups. A p value less than 0.05 was considered to be significant.

[1] = test system: hepatocytes / rat liver regeneration; test: Rat liver regeneration (3H-thymidine incorporation into hepatic DNA and hepatocyte mitosis) after sham operation or 40%/70% hepatectomy; format: in vivo, rat (Fisher 344); conditions: for 3H-thymidine incorporation / Proportion of hepatocytes in mitosis: 4 days, mean (SE)
Procedure: Adult male inbred Fisher 344 rats weighing 180-200 g were purchased from Hilltop Lab Animals Inc (Scottdale, Pa.). The animals were given standard rat laboratory diet and water ad libitum in a temperature and light controlled room (light 0730-1930). […] Animals in groups 3 and 4 had sham operations in which the liver was manipulated at laparotomy. Food and drink were allowed immediately. Parenteral fluid and electrolyte support were not required.
24 h after the hepatectomies, 185×10^4 Bq ^3 H-thymidine was administered to all rats by intraperitoneal injection. The rats, including groups 1 and 2, were killed 2 h later by guillotine. Extraction and purification of hepatic DNA were done with the method of Ove et al (Liver and hormones, New York: Raven Press, 1987:265-76) and DNA content was measured with calf thymus DMA (Sigma) as standard. Specimens from each liver were prepared for histological examination with hematoxylin and eosin and the proportion of hepatocytes in mitosis was counted. All results are means and SE.

[2] = test system: acute and chronic liver allograft rejection; conditions: humans; compared with previous compounds; cited from earlier work
midzonal hepatocytes = test: Eck fistula dogs, left portal vein infusion: electron microscopy of hepatocyte organelles; format: in vivo, dog (beagle); conditions: 0.01 mg/kg/day, mean +/- SD
Procedure: as §1
For studies of the organelles, small cubes of each hepatic sample were taken for electron microscopy. The tissue was post-fixed in glutaraldehyde followed by osmic acid. After embedding in Polarbed. 812 resin, ultrathin sections were cut, stained with lead citrate and examined in a Philip's 300 electron microscope. Measurements of the organelles were made on electron micrographs by Loud's method (Loud, J Cell Biol, 1968, 37:27-46).
as §2

[3] = infused into the left portal vein
[4] = group 2: FK 506 1 mg/kg IM, no operation
[5] = group 10: FK 506 1 mg/kg IM, 70% hepatectomy, p < 0.01 vs group 8

For `C=CCC1C=C(C)CC(C)CC(OC)C2OC(O)(C(=O)C(=O)N3CCCCC3C(=O)OC(C(C)=CC3CCC(O)C(OC)C3)C(C)C(O)CC1=O)C(C)CC2OC` (centres unmarked) [FK 506], the “direct effect on hepatocytes in culture” value (hepatocytes in culture) is given as “no direct effect”, the “Labeled Hepatocytes/1000 Hepatocytes, Left” value (hepatocytes; 0.01 mg/kg/day, p vs vehicle 0.0044, left vs right 0.0167) is given as 5.43 +/- .35 Labeled Hepatocytes/1000 Hepat and the “Hepatocytes Size Units, Left” value (hepatocytes; 0.01 mg/kg/day, p vs vehicle 0.5782, left vs right 0.0004) is given as “.111 +/- .008 Size Units”. For the same compound, the “Hepatocytes Size Units, Right” value (hepatocytes; 0.01 mg/kg/day, p vs vehicle 0.1860) was “.100 +/- .007 Size Units”, the “Labeled Hepatocytes/1000 Hepatocytes, Right” value (hepatocytes; 0.01 mg/kg/day, p vs vehicle 0.2477) was 4.77 +/- .60 Labeled Hepatocytes/1000 Hepat and the “Labeled Hepatocytes/1000 Hepatocytes, Left” value (hepatocytes; 0.1 mg/kg/day, p vs vehicle 0.0005, left vs right 0.0001) was 5.98 +/- .43 Labeled Hepatocytes/1000 Hepat. For the same compound, the “Hepatocytes Size Units, Left” value (hepatocytes; 0.1 mg/kg/day, p vs vehicle 0.0065, left vs right 0.0000) was “.137 +/- .008 Size Units”, the “Labeled Hepatocytes/1000 Hepatocytes, Right” value (hepatocytes; 0.1 mg/kg/day, p vs vehicle 0.0086) was 5.19 +/- .38 Labeled Hepatocytes/1000 Hepat and the “Hepatocytes Size Units, Right” value (hepatocytes; 0.1 mg/kg/day, p vs vehicle 0.8351) was “.113 +/- .006 Size Units”. The “Labeled Hepatocytes/1000 Hepatocytes, Left” value (hepatocytes; 1.0 mg/kg/day, p vs vehicle 0.0001, left vs right 0.0015) was 9.13 +/- .89 Labeled Hepatocytes/1000 Hepat, the “Hepatocytes Size Units, Left” value (hepatocytes; 1.0 mg/kg/day, p vs vehicle 0.0004, left vs right 0.0009) was “.162 +/- .012 Size Units” and the “Hepatocytes Size Units, Right” value (hepatocytes; 1.0 mg/kg/day, p vs vehicle 0.0503) was “.134 +/- .006 Size Units”. The “Labeled Hepatocytes/1000 Hepatocytes, Right” value (hepatocytes; 1.0 mg/kg/day, p vs vehicle 0.0510) was 5.37 +/- .78 Labeled Hepatocytes/1000 Hepat, the “changes in directly infused lobes compared with non-infused lobes” value (hepatocytes; all doses) was “significantly greater in the directly infused lobes at all doses” and the “changes in non-infused lobes compared to vehicle controls” value (hepatocytes; high FK 506 doses) was “significantly effected compared to the vehicle controls”. For the same compound, the “atrophy of the left lobar hepatocytes” value (hepatocytes; [3]) was “prevented in proportion to the dose”, the rate of mitoses (hepatocytes; [3]) was “increased” and the “evidence of drug toxicity in infused lobes” value (hepatocytes; lobes infused with FK 506) was “no evidence of drug toxicity”. For the same compound, the “regeneration after hepatectomy compared with controls” value ([1]; 4 days pretreatment, intramuscular FK 506 or oral cyclosporin) was “significantly augmented compared with controls”, the “hepatocyte mitosis and DNA synthesis in sham operation group” value ([1]; FK 506 added to sham operation) was “further and significantly increased” and the 3H-thymidine incorporation [1, 4] was 3.2 × 10^3 cpm/mg DNA. The “Proportion of hepatocytes in mitosis” value [1, 4] was 1.7%, the 3H-thymidine incorporation ([1]; group 4: FK 506 1 mg/kg IM, sham operation, p < 0.005 vs groups 1, 2 and 3) was 10.5 × 10^3 cpm/mg DNA and the “Proportion of hepatocytes in mitosis” value ([1]; group 4: FK 506 1 mg/kg IM, sham operation, p < 0.05 vs groups 1 and 2) was 9.5%. For the same compound, the 3H-thymidine incorporation ([1]; group 6: FK 506 1 mg/kg IM, 40% hepatectomy, p < 0.001 vs group 5) was 32.4 × 10^3 cpm/mg DNA, the 3H-thymidine incorporation [1, 5] was 242.0 × 10^3 cpm/mg DNA and the “Proportion of hepatocytes in mitosis” value [1, 5] was 59.0%. The “regeneration effect, FK 506 compared with cyclosporin” value ([1]; group 10 compared with group 9, 70% hepatectomy) was “greater with FK 506 than with cyclosporin”, the “resting hepatocyte mitosis or DNA synthesis” value ([1]; unoperated rats) was “did not increase” and the “acute and chronic liver allograft rejection” value [2] was “prevent acute and chronic liver allograft rejection in humans more reliably and completely than has been possible with previous compounds”. For the same compound, the “Organelle volume in average midzonal hepatocytes, Lipids, Left” value (midzonal hepatocytes; left (infused) lobe, left vs right p 0.0012) was 23.3 +/- 8.8 uM^3, the “Organelle volume in average midzonal hepatocytes, Lysosomes, Left” value (midzonal hepatocytes; left (infused) lobe, left vs right p 0.0017) was 62.3 +/- 15.1 uM^3 and the “Organelle volume in average midzonal hepatocytes, Microbodies, Left” value (midzonal hepatocytes; left (infused) lobe, left vs right p 0.0080) was 99.2 +/- 11.8 uM^3. The “Organelle volume in average midzonal hepatocytes, Mitochondria, Left” value (midzonal hepatocytes; left (infused) lobe, left vs right p 0.1903) was 1233.7 +/- 222.4 uM^3, the “Area of rough endoplasmic reticulum per average midzonal hepatocyte, Left” value (midzonal hepatocytes; left (infused) lobe, p vs vehicle 0.0000, left vs right 0.0001) was 26332 +/- 1483 uM^2 and the “Area of smooth endoplasmic reticulum per average midzonal hepatocyte, Left” value (midzonal hepatocytes; left (infused) lobe, p vs vehicle 0.0661, left vs right 0.0000) was 18433 +/- 535 uM^2. The “Organelle volume in average midzonal hepatocytes, Lipids, Right” value (midzonal hepatocytes; right lobe) was 81.0 +/- 15.1 uM^3 and the “Organelle volume in average midzonal hepatocytes, Lysosomes, Right” value (midzonal hepatocytes; right lobe) was 162.6 +/- 48.9 uM^3.
